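Growth conditions: 96-well plates. Treatment: test compound, 48 hours, 5 concentrations. Analysis: linear interpolation between bracketing concentrations; unreached endpoints set to highest concentration. The concentration for full growth arrest is given as TGI.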
Key:
Experiment in all cases: inhibition of tumour cell growth, NCI panel, 48 h
RXF 393 renal = system: RXF 393 renal
LXFL 529 NSCLC = system: LXFL 529 NSCLC
NCI-H23 lung = system: NCI-H23 lung
DLD-1 colon = system: DLD-1 colon
HCT-116 colon = system: HCT-116 colon
SR leukemia = system: SR leukemia
IGROV1 ovarian = system: IGROV1 ovarian
HS 578T breast = system: HS 578T breast
UO-31 renal = system: UO-31 renal
DMS 114 small cell lung = system: DMS 114 small cell lung
KM20L2 colon = system: KM20L2 colon
OVCAR-5 ovarian = system: OVCAR-5 ovarian
HL-60(TB) leukemia = system: HL-60(TB) leukemia
MALME-3M melanoma = system: MALME-3M melanoma
NCI-H522 lung = system: NCI-H522 lung
SNB-75 CNS = system: SNB-75 CNS
MDA-MB-231 breast = system: MDA-MB-231 breast
NCI/ADR-RES ovarian = system: NCI/ADR-RES ovarian
CAKI-1 renal = system: CAKI-1 renal
SK-OV-3 ovarian = system: SK-OV-3 ovarian
BT-549 breast = system: BT-549 breast
SK-MEL-5 melanoma = system: SK-MEL-5 melanoma
DU-145 prostate = system: DU-145 prostate
OVCAR-4 ovarian = system: OVCAR-4 ovarian
U251 CNS = system: U251 CNS
SNB-19 CNS = system: SNB-19 CNS
NCI-H460 lung = system: NCI-H460 lung
KM12 colon = system: KM12 colon
CCRF-CEM leukemia = system: CCRF-CEM leukemia
COLO 205 colon = system: COLO 205 colon
NCI-H226 lung = system: NCI-H226 lung
TK-10 renal = system: TK-10 renal
A498 renal = system: A498 renal
HOP-18 NSCLC = system: HOP-18 NSCLC
SNB-78 CNS = system: SNB-78 CNS
OVCAR-3 ovarian = system: OVCAR-3 ovarian
SF-539 CNS = system: SF-539 CNS
MCF7 breast = system: MCF7 breast
HOP-62 NSCLC = system: HOP-62 NSCLC
K-562 leukemia = system: K-562 leukemia
UACC-62 melanoma = system: UACC-62 melanoma
RPMI-8226 leukemia = system: RPMI-8226 leukemia
MDA-MB-435 = system: MDA-MB-435
HOP-92 NSCLC = system: HOP-92 NSCLC
SN12C renal = system: SN12C renal
M14 melanoma = system: M14 melanoma
EKVX NSCLC = system: EKVX NSCLC
786-0 renal = system: 786-0 renal
HCC-2998 colon = system: HCC-2998 colon
ACHN renal = system: ACHN renal
MDA-N = system: MDA-N
MOLT-4 leukemia = system: MOLT-4 leukemia
PC-3 prostate = system: PC-3 prostate
SF-295 CNS = system: SF-295 CNS
T-47D breast = system: T-47D breast
HT29 colon = system: HT29 colon
LOX IMVI melanoma = system: LOX IMVI melanoma
SF-268 CNS = system: SF-268 CNS
UACC-257 melanoma = system: UACC-257 melanoma
SK-MEL-2 melanoma = system: SK-MEL-2 melanoma
HCT-15 colon = system: HCT-15 colon
SW-620 colon = system: SW-620 colon
A549 NSCLC = system: A549 NSCLC
M19-MEL melanoma = system: M19-MEL melanoma
SK-MEL-28 melanoma = system: SK-MEL-28 melanoma
OVCAR-8 ovarian = system: OVCAR-8 ovarian
DMS 273 small cell lung = system: DMS 273 small cell lung

CN(C)C(=S)/N=c1\ssc(=S)n1Cc1cccs1
TGI (RXF 393 renal): 23.9 µM | TGI (LXFL 529 NSCLC): > 100 µM | TGI (NCI-H23 lung): > 100 µM | TGI (DLD-1 colon): > 100 µM | TGI (HCT-116 colon): > 69.6 µM | TGI (SR leukemia): > 100 µM | TGI (IGROV1 ovarian): > 100 µM | TGI (HS 578T breast): 5.17 µM | TGI (UO-31 renal): > 100 µM | TGI (DMS 114 small cell lung): 5.6 µM | TGI (KM20L2 colon): 3.57 µM | TGI (OVCAR-5 ovarian): > 100 µM | TGI (HL-60(TB) leukemia): 13.9 µM | TGI (MALME-3M melanoma): 74.7 µM | TGI (NCI-H522 lung): 9.6 µM | TGI (SNB-75 CNS): 15.2 µM | TGI (MDA-MB-231 breast): > 100 µM | TGI (NCI/ADR-RES ovarian): 5.1 µM | TGI (CAKI-1 renal): > 91.4 µM | TGI (SK-OV-3 ovarian): > 90 µM | TGI (BT-549 breast): > 100 µM | TGI (SK-MEL-5 melanoma): > 16.1 µM | TGI (DU-145 prostate): > 100 µM | TGI (OVCAR-4 ovarian): > 91.7 µM | TGI (U251 CNS): 69.9 µM | TGI (SNB-19 CNS): > 90.9 µM | TGI (NCI-H460 lung): > 89.7 µM | TGI (KM12 colon): > 100 µM | TGI (CCRF-CEM leukemia): > 60.2 µM | TGI (COLO 205 colon): 6.41 µM | TGI (NCI-H226 lung): > 100 µM | TGI (TK-10 renal): > 81.6 µM | TGI (A498 renal): > 100 µM | TGI (HOP-18 NSCLC): > 100 µM | TGI (SNB-78 CNS): > 100 µM | TGI (OVCAR-3 ovarian): 6.57 µM | TGI (SF-539 CNS): 15.1 µM | TGI (MCF7 breast): > 30.4 µM | TGI (HOP-62 NSCLC): 81.3 µM | TGI (K-562 leukemia): > 55.8 µM | TGI (UACC-62 melanoma): > 56.7 µM | TGI (RPMI-8226 leukemia): > 100 µM | TGI (MDA-MB-435): 2.71 µM | TGI (HOP-92 NSCLC): > 89.1 µM | TGI (SN12C renal): > 100 µM | TGI (M14 melanoma): > 100 µM | TGI (EKVX NSCLC): > 94.6 µM | TGI (786-0 renal): 52.5 µM | TGI (HCC-2998 colon): > 100 µM | TGI (ACHN renal): > 100 µM | TGI (MDA-N): 2.85 µM | TGI (MOLT-4 leukemia): > 100 µM | TGI (PC-3 prostate): > 100 µM | TGI (SF-295 CNS): 21.8 µM | TGI (T-47D breast): > 100 µM | TGI (HT29 colon): > 100 µM | TGI (LOX IMVI melanoma): > 100 µM | TGI (SF-268 CNS): > 100 µM | TGI (UACC-257 melanoma): > 75.4 µM | TGI (SK-MEL-2 melanoma): 25.7 µM | TGI (HCT-15 colon): > 100 µM | TGI (SW-620 colon): > 100 µM | TGI (A549 NSCLC): > 91.4 µM | TGI (M19-MEL melanoma): > 100 µM | TGI (SK-MEL-28 melanoma): > 100 µM | TGI (OVCAR-8 ovarian): 52.9 µM

C=C1C2C[C@@H]3OC4CC5O[C@]6(CC5OC4C(C)C3OC(=O)CC3CC[C@@H]4OC5C7OC8C[C@](CCC9CC(=C)[C@H](CCC(C[C@H]1C)O2)O9)(OC7C4O3)O[C@@H]85)C[C@@H]1O[C@@]2(CC(C)[C@@H]3OC(CC(=O)CCO)C(O)C[C@@H]3O2)CC(C)[C@@H]1O6 (some centres undefined)
TGI (LXFL 529 NSCLC): 1.19 µM | TGI (NCI-H23 lung): < 0.001 µM | TGI (DLD-1 colon): 1.24 µM | TGI (HCT-116 colon): 0.00111 µM | TGI (SR leukemia): 1.24 µM | TGI (IGROV1 ovarian): 1.37 µM | TGI (UO-31 renal): 1.17 µM | TGI (KM20L2 colon): < 0.001 µM | TGI (OVCAR-5 ovarian): 0.562 µM | TGI (DMS 273 small cell lung): < 0.001 µM | TGI (MALME-3M melanoma): 0.189 µM | TGI (NCI-H522 lung): < 0.001 µM | TGI (CAKI-1 renal): 0.877 µM | TGI (SK-OV-3 ovarian): 0.905 µM | TGI (SK-MEL-5 melanoma): 0.00259 µM | TGI (OVCAR-4 ovarian): < 0.001 µM | TGI (SNB-19 CNS): 0.816 µM | TGI (NCI-H460 lung): 1.33 µM | TGI (KM12 colon): 0.00228 µM | TGI (CCRF-CEM leukemia): 1.8 µM | TGI (COLO 205 colon): < 0.001 µM | TGI (NCI-H226 lung): < 0.001 µM | TGI (SNB-78 CNS): 1.98 µM | TGI (OVCAR-3 ovarian): < 0.001 µM | TGI (SF-539 CNS): < 0.001 µM | TGI (HOP-62 NSCLC): 0.0034 µM | TGI (UACC-62 melanoma): 0.181 µM | TGI (HOP-92 NSCLC): 0.0017 µM | TGI (SN12C renal): 0.206 µM | TGI (M14 melanoma): 0.17 µM | TGI (786-0 renal): 1.09 µM | TGI (HCC-2998 colon): < 0.001 µM | TGI (ACHN renal): 1.71 µM | TGI (MOLT-4 leukemia): 2.19 µM | TGI (SF-295 CNS): < 0.001 µM | TGI (LOX IMVI melanoma): 0.119 µM | TGI (SF-268 CNS): 1.61 µM | TGI (UACC-257 melanoma): 1.52 µM | TGI (SK-MEL-2 melanoma): < 0.001 µM | TGI (HCT-15 colon): 0.00109 µM | TGI (SW-620 colon): 1.32 µM | TGI (A549 NSCLC): 1.28 µM | TGI (OVCAR-8 ovarian): 0.0172 µM

From PubChem BioAssay (NCI)
